Test results from patent US20040102454A1, “Phenylahistin and the phenylahistin analogs, a new class of anti-tumor compounds” (priority 1998, published 2004).
pIC50: −log10 of the molar value. Converted amounts (≈) assume the structure as drawn. “And” between values parts separate entries of the source, which are not always exact repeats. Equal entries are not always repeated. Where two headings read alike, the source gives them in different places. Each block holds one compound with its values, some of them ahead of it.

What was measured:
[1] = test system: A-431 human pudendal epithelial squamous cancer cells; assay: Cell proliferation inhibiting effect, MTT (Example 5); type: cell-based; conditions: A-431, 48-hours incubation
Protocol: (§1) K-562, human chronic myelogenic leukemia cells were cultured in […] culture medium (containing 10% bovine fetus serum) and A-431 human pudendal epithelial squamous cancer cells were cultured in DMEM culture medium, containing 10% bovine fetus serum. To these a continuous dilution series of the (+)-phenylahistin obtained in EXAMPLE 1 was added. After 48-hours incubation, a MTT reagent was added to measure growth.

[2] = test system: K-562, human chronic myelogenic leukemia cells; assay: as above; type: cell-based; conditions: K562, K-562, 48-hours incubation
Protocol: as §1

[3] = test system: Microtubule protein from bovine brain; assay: Microtubule protein polymerization assay (turbidity); type: biochemical
Protocol: Microtubule protein was prepared from bovine brain tissue by two cycles of assembly and disassembly according to the method of Tiwari, S. C. et al. Anal. Biochem, (1993), 215, 96-103. Tubulin was purified from microtubule protein by phosphocellulose chromatography see Algaier, J. et al. Biochim. Biophys. Acta, (1988), 954, 235-43, and tubulin purity was evaluated by polyacrylamide gel electrophoresis, as in Laemmli, U.K., Nature, (1970), […], 680-85. […] Protein concentrations were determined using the Coomassie® Protein Assay Reagent from Pierce (Rockford, Ill.).
Polymerization of microtubule protein was monitored by an increase in turbidity at 37° C. in microtubule assembly buffer containing 100 mM MES, 0.5 mM MgCl2, 1 mM EGTA and 1 mM GTP. See Johnson, K. A. et al., J. Mol. Biol., (1977), 117, 1-31. Polymerization of purified tubulin was measured using the same method except the microtubule assembly buffer contained 4 M glycerol. See Lee, J. C. et al., Biochemistry, (1975), 14, 5183-87. Microtubule protein and tubulin polymerization was initiated by a temperature shift from 0° C. to 37° C. and turbidity was measured on a DU-20 thermocontrolled spectrophotometer from Beckman (Fullerton, Calif.) at 360 nm. Drugs were dissolved in dimethyl sulfoxide (DMSO), which was used in all experiments at a final concentration of 2% (v/v).
For this example, the microtubule protein polymerization assay was performed as follows. Microtubule protein was prepared from bovine brain tissue by two cycles of assembly and disassembly. Polymerization of microtubule protein was monitored by an increase in turbidity at 37° C. in microtubule assembly buffer containing 100 mM MES, 0.5 mM MgCl2, 1 mM EGTA and 1 mM GTP. The polymerization of microtubule protein was initiated by a temperature shift from 0° C. to 37° C. Turbidity was measured on a thermo-controlled spectrophotometer (Beckman DU-20, Fullerton, Calif.) at 360 nm. Compounds were dissolved in DMSO, which was used in all experiments at a final concentration of 2% (v/v).

[4] = test system: seven human cancer cell lines; assay: Antiproliferative activity, MTT assay, all lines of Table 7; type: cell-based
Protocol: (§2) In order to examine detailed biological activity, especially antitumor activity of both (+)- and (−)-phenylahistin, resolution of (+)- and (−)-phenylahistin using chiral HPLC was conducted. By repeating chiral separation twice or three times, each enantiomer with an optical purity over 99.8% was obtained, and each enantiomer was recrystallizes from ethanol-hexane mixture.
(§3) Antitumor activity of (+)- and (−)-phenylahistin was examined against seven human cancer cell lines including A431, WiDr, TE-671, Hela, MCF7, A-549 and K562 cells.

[5] = test system: P388 murine leukemia cells; assay: Cytotoxic effects of the phenylahistin enantiomers (Example 8); type: cell-based; conditions: Mus musculus, (−) 92.2% e.e., (+) 97.8% e.e.
Excerpt: The cytotoxic effects of the enantiomers of phenylahistin on P388 murine leukemia cells were examined. […] Judging from the content of (−)-phenylahistin in (+)-phenylahistin, (+)-phenylahistin was considered to have relatively low cytotoxicity to P388 cells.

[6] = test system: TE-671 (CNS); assay: Antiproliferative activity, MTT assay (Table 7); type: cell-based; conditions: Homo sapiens, TE-671, TE-671 (CNS), optical purity over 99.8%
Protocol: as §2, §3

[7] = test system: Hela (ovary); assay: Antiproliferative activity, MTT assay (Table 7); type: cell-based; conditions: Homo sapiens, optical purity over 99.8%
Protocol: as §2, §3

[8] = test system: WiDr (colon); assay: Antiproliferative activity, MTT assay (Table 7); type: cell-based; conditions: Homo sapiens, optical purity over 99.8%
Protocol: as §2, §3

[9] = test system: MCF7 (breast); assay: Antiproliferative activity, MTT assay (Table 7); type: cell-based; conditions: Homo sapiens, optical purity over 99.8%
Protocol: as §2, §3

[10] = test system: K562 (leukemia); assay: Antiproliferative activity, MTT assay (Table 7); type: cell-based; conditions: Homo sapiens, optical purity over 99.8%
Protocol: as §2, §3

[11] = test system: A549 (lung); assay: Antiproliferative activity, MTT assay (Table 7); type: cell-based; conditions: Homo sapiens, optical purity over 99.8%
Protocol: as §2, §3

[12] = test system: A-431 (damal); assay: Antiproliferative activity, MTT assay (Table 7); type: cell-based; conditions: Homo sapiens, optical purity over 99.8%
Protocol: as §2, §3

[13] = test system: P388 cells; assay: P388 proliferation, Alamar Blue assay; type: cell-based, murine; conditions: Mus musculus, P388
Protocol: For this example, the Alamar Blue™ assay was performed as follows. Exponentially growing P388 cells were seeded into 96-well tissue culture plates (5×10^3 cells/100 μl/well) and cultured in RPMI 1640 medium supplemented with 10% fetal bovine serum for 16 h. Compounds (DMSO solution) were then added to each well at various concentrations, and the cells were cultured for an additional 48 h. Living cells were counted using Alamar Blue™ (BioSource International, Camarillo, Calif.), according to the method of Ahmed, S. A. et al., J. Immunol. Methods, 170, 211 (1994).

[14] = test system: P388 cells; assay: Cell cycle progression of P388, flow cytometer; type: cell-based, murine; conditions: 1×10^−5 M, 8-hour incubation; 97.8% e.e.
Protocol: The effect of phenylahistin on the cell cycle progression of P388 cells was also investigated using a flow cytometer, as described in Krishan, A., J. Cell Biol. (1975) 66, 188-193. P388 cells in the log growth phase were seeded into flasks and cultured for 14 hours, and then various concentrations of phenylahistin were added to each flask. After an 8-hour incubation, the cells were harvested and fixed with 50% MeOH at −20° C. overnight. The cells were washed with 30% MeOH and then with 10 mM PBS, and treated with 50 :g/ml propidium iodide at 4° C. for 2 hours. DNA histograms were obtained using a flow cytometer (Cyto ACE-300:JASCO).

[15] = test system: Jurkat cells; assay: Cytotoxicity in Jurkat cells; conditions: Homo sapiens, read-out: Cytotoxicity Potency IC50
[16] = test system: HL-60/MX-2 (Mitoxantrone-Resistant) human acute promyelocytic leukemia cell line; assay: Drug resistant cell line pair, cytotoxicity; type: cell-based
Excerpt: HL-60 (Mitoxantrone-Sensitive) and HL-60/MX-2 (Mitoxantrone-Resistant) This cell line is considered to have atypical drug resistance properties with altered topoisomerase II catalytic activity without overexpression of P-glycoprotein.

[17] = test system: MES-SA DX (Taxol Resistant) human uterine sarcoma tumor cell line; assay: Drug resistant cell line pair, cytotoxicity; type: cell-based
Excerpt: MES-SA (Taxol Sensitive) and MES-SA DX (Taxol Resistant). This cell line expresses elevated mdr-1 mRNA and P-glycoprotein (an extrusion pump mechanism). Pretreatment with cyclosporin-A (CsA) blocks P-glycoprotein and reinstates activity in the resistant cell line for those compounds for which the resistance is due to elevated P-glycoprotein.

[18] = test system: Jurkat cells
[19] = test system: HL-60 (Mitoxantrone-Sensitive) human acute promyelocytic leukemia cell line; assay: Drug resistant cell line pair, cytotoxicity; type: cell-based; conditions: Homo sapiens; HL-60 Sensitive
Excerpt: 2) Human Acute Promyelocytic Leukemia Cell Line Pair: HL-60 (Mitoxantrone-Sensitive) and HL-60/MX-2 (Mitoxantrone-Resistant)
This cell line is considered to have atypical drug resistance properties with altered topoisomerase II catalytic activity without overexpression of P-glycoprotein.

- IC50 [1]: 2.9 µg/mL (≈ 8.28 µM)
- IC50 [2]: 13.3 µg/mL (≈ 38 µM)
- pIC50 ([3]; microtubule protein 1.5 mg/mL (Table 9), read-out: IC50 Microtubule Protein polymerization): < 3.70
- pIC50 ([3]; microtubule protein 1.5 mg/ml (Table 4), read-out: IC50 for Microtubule Protein Polymerization): < 3.70
- pIC50 [7]: 5.00
- pIC50 [9]: 4.96
- pIC50 [10]: 5.00
- pIC50 [11]: 4.52
- pIC50 [12]: 4.70
- pIC50 ([13]; Alamar Blue assay (Table 4), read-out: IC50 for P388 Proliferation): 5.00
- pIC50 ([13]; means (±SEM) of three experiments (Table 9), read-out: IC50 P388 proliferation): 5.00
Structure (SMILES): C=CC(C)(C)c1[nH]cnc1/C=C1\NC(=O)[C@@H](Cc2ccccc2)NC1=O [(+)-phenylahistin]
- inhibition percentage at 200 μM, microtubule protein polymerization ([3]; 200 μM): 15%
- microtubule assembly ([3]; concentrations up to 200 μM): did not affect microtubule assembly
- fold less activity than (−)-PLH [4]: 33 to 100 fold
- pIC50 [5]: 4.42
- pIC50 [6]: 3.89
- pIC50 [8]: 5.07
- cell cycle inhibitory activity (G2/M) [14]: no effect

Structure (SMILES): O=C1c2c(O)ccc(O)c2C(=O)c2c(NCCNCCO)ccc(NCCNCCO)c21 [Mitoxantrone, reference compound]
- pIC50 [15]: 7.39
- Ratio to Sensitive ([16]; HL-60 Resistant versus Sensitive): 24 and 24.1
- pIC50 ([16]; Homo sapiens, HL60/MX2, HL-60 Resistant): 5.31
- reduced susceptibility of the MES-SA DX cell line [17]: 20 fold
- Cytotoxicity Efficacy % Cell Death [18]: 99%
- pIC50 [19]: 6.69
